Assay results: PMC11192081, “Evidence that the cold- and menthol-sensing functions of the human TRPM8 channel evolved separately” (Science Advances, 2024)

Experiments:
[1] = system: T1, AncVert TRPM8; assay: Fluoforte calcium flux assay, HEK-293T stable cells; format: cell-based; details: Homo sapiens
T1 construct: tetramer

[2] = system: T2, AncMam TRPM8; assay: as above; format: cell-based; details: Homo sapiens
T2 construct: tetramer

CC(C)[C@@H]1CC[C@@H](C)C[C@H]1O [menthol]
EC50 [1]: 140 ± 40 µM | EC50 [2]: 10 ± 1 µM
